Measurements: US5985910A, “3- [4- (2- Phenyl-Indole-1-ylmethyl) Phenyl]- Acrylamides as estrogenic agents” (priority 1997, dated 1999)

How the values were obtained:
[1] = system: uteri; assay: Rat Uterotrophic/Antiuterotrophic Bioassay (results headed 3-Day Ovariectomized Rat Model); assay type: in vivo, rat (Sprague-Dawley)
Description: Rat Uterotrophic/Antiuterotrophic Bioassay
Immature Sprague-Dawley rats (female, 18 days old) were tested in groups of six. […] On day 4 the animals were sacrificed by CO2 asphyxiation and their uteri were removed and stripped of excess lipid, any fluid removed and the wet weight determined. A small section of one horn was submitted for histology and the remainder used to isolate total RNA in order to evaluate complement component 3 gene expression.

[2] = target: T1, estrogen receptor (Homo sapiens, UniProt P03372); assay: In Vitro Estrogen Receptor Binding Assay ([3H]-17β-estradiol competition, cytosol of CHO cells overexpressing the estrogen receptor); parameters: made in house; host or cells: CHO cells overexpressing the receptor; 100,000 g cytosol
T1 sequence (P03372 1-595): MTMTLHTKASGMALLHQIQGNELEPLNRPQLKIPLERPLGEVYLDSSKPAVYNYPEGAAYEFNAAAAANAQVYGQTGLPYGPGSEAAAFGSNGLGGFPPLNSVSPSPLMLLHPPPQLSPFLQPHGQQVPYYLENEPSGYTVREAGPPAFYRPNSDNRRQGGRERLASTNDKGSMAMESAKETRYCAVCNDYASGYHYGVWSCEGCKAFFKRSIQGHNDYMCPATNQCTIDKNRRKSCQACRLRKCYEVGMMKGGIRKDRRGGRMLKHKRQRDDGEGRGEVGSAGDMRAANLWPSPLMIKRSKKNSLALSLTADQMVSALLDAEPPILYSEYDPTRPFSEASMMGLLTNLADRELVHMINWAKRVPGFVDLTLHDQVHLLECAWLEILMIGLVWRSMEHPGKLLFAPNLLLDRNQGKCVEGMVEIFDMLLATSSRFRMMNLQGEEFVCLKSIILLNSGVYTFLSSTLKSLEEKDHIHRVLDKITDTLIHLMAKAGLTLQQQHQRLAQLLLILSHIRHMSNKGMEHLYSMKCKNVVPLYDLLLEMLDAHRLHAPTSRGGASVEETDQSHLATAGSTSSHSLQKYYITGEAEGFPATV
Description: In Vitro Estrogen Receptor Bonding Assay
CHO cells overexpressing the estrogen receptor were grown in 150 mm^2 dishes in DMEM+10% dextran coated charcoal, stripped fetal bovine serum. The plates were washed twice with PBS and once with 10 mM Tris-HCl, pH 7.4, 1 mM EDTA. Cells were harvested by scraping the surface and then the cell suspension was placed on ice. Cells were disrupted with a hand-held motorized tissue grinder using two, 10-second bursts. […] The cytosol was then frozen and stored at -80° C. Protein concentration of the cytosol was estimated using the BCA assay with reference standard protein.
100 uG/100 uL of the receptor preparation was aliquoted per well. […] The plate was incubated at room temperature for 2.5 h. […] 200 uL of the supernatant solution was then removed for scintillation counting. Samples were counted to 2% or 10 minutes, whichever occurs first. […] Also, wells containing radioactivity but no cytosol were processed with charcoal to estimate unremovable DPM of [^3 H] […].
Counts per minute (CPM) of radioactivity were automatically converted to disintegrated per minute (DPM) by the Beckman LS 7500 Scintillation Counter using a set of quenched standards to generate a H# for each sample.
((DPM sample-DPM not removed by charcoal)/(DPM estradiol-DPM not removed by charcoal))×100%=% of estradiol binding
For the generation of IC50 curves, % binding is plotted vs compound. […] For a description of these methods, see Hulme, E. C., ed. […] Receptor-Ligand Interactions: A Practical Approach. IRL Press, New York (see especially chapter 8).

[3] = target: T1, estrogen receptor; assay: 2X VIT ERE Transfection (luciferase) Assay in CHO cells; assay type: cell-based; parameters: expressed in transfected cells; host or cells: Chinese Hamster Ovary (CHO) cells, stably transfected
Description: 2X VIT ERE Transfection Assay
(§1) Cell Maintenance and Treatment
Chinese Hamster Ovary cells (CHO) which had been stably transfected with the human estrogen receptor were maintained in DMEM+10% fetal bovine serum (FBS). 48 h prior to treatment the growth medium was replaced with DMEM lacking phenol red +10% dextran coated charcoal stripped FBS (treatment medium). Cells were plated at a density of 5000 cells/well in 96-well plates containing 200 μL of medium/well.
Calcium Phoshate Transfection
Reporter DNA (Promega plasmid pGL2 containing two tandem copies of the vitellogenin ERE in front of the minimal thymidine kinase promoter driving the luciferase gene) was combined with the B-galactosidase expression plasmid pCH110 (Pharmacia) and carrier DNA (pTZ18U) in the following ratio:
20 uL of this mixture was added to each well of cells and remained on the cells for 16 h. […] Each treatment condition was performed on 8 wells (n=8) which were incubated for 24 h prior to the luciferase assay.
After removing the PBS, 25 uL of Promega lysis buffer was added to each well and allowed to stand at room temperature for 15 min, followed by 15 min at -80° C. and 15 min at 37° C. 20 uL of lysate was transferred to an opaque 96 well plate for luciferase activity evaluation and the remaining lysate (5 uL) was used for the B-galactosidase activity evaluation (normalize transfection). The luciferan substrate (Promega) was added in 100 uL aliquots to each well automatically by the luminometer and the light produced (relative light units) was read 10 seconds after addition.
To the remaining 5 uL of lysate 45 uL of PBS was added. Then 50 uL of Promega B-galactosidase 2× assay buffer was added, mixed well and incubated at 37° C. for 1 hour. A plate containing a standard curve (0.1 to 1.5 milliunits in triplicate) was set up for each experimental run. The plates were analyzed on a Molecular Devices spectrophotometric plate reader at 410 nm. The optical densities for the unknown were converted to milliunits of activity by mathematical extrapolation from the standard curve.
The luciferase data was generated as relative light units (RLUs) accumulated during a 10 second measurement and automatically transferred to a JMP (SAS Inc) file where background RLUs were subtracted. The B-galactosidase values were automatically imported into the file and these values were divided into the RLUs to normalize the data. The mean and standard deviations were determined from a n=8 for each treatment. […] These techniques are described by Tzukerman, M. T., Esty, A., Santiso-Mere, D., Danielian, P., Parker, M. G., Stein, R. B., Pike, J. W. and McDonnel, D. P. (1994). Human estrogen receptor transactivational capacity was determined by both cellular and promoter context and mediated by two functionally distinct intramolecular regions (see Molecular Endocrinology, 8:21-30).

[4] = system: Ishikawa cells; assay: Ishikawa Cell Alkaline Phosphatase Assay; assay type: cell-based, human; details: for % Activation (Compound ± 1 nM 17β-estradiol) (alkaline phosphatase): 10^-6 M compound + 1 nM 17β-estradiol, 48 h (antiestrogen test); for % Activation (alkaline phosphatase): compound alone, 48 h, percent of response related to 1 nM 17β-estradiol
Description: Ishikawa Cell Alkaline Phosphatase Assay
as §1
Ishikawa cells were maintained in DMEM/F12 (50%:50%) containing phenol red+10% fetal bovine serum and the medium was supplemented with 2 mM Glutamax, 1% Pen/Strap and 1 mM sodium pyruvate. Five days prior to the beginning of each experiment (treatment of cells) the medium was changed to phenol red-free DMEM/F12+10% dextran coated charcoal stripped serum. On the day before treatment, cells were harvested using 0.5% trypsin/EDTA and plated at a density of 5×10^4 cells/well in 96-well tissue culture plates. […] Cells were treated for 48 h prior to assay. […] Sample population for at each dose was n=8.
Alkaline Phosphatase Assay
At the end of 48 h the media is aspirated and cells are washed three times with phosphate buffered saline (PBS). 50 μL of lysis buffer (0.1 M Tris-HCl, pH 9.8, 0.2% Triton X-100) is added to each well. Plates are placed at -80° C. for a minimum of 15 minutes. Plates are thawed at 37° C. followed by the addition of 150 μL of 0.1 M Tris-HCl, pH 9.8, containing 4 mM para-nitrophenylphosphate (pNPP) to each well (final concentration, 3 mM pNPP).
Absorbance and slope calculations were made using the KineticCalc Application program (Bio-Tek Instruments, Inc., Winooski, Vt.). Results are expressed as the mean +/-S.D. of the rate of enzyme reaction (slope) averaged over the linear portion of the kinetic reaction curve (optical density readings every 5 minutes for 30 minutes absorbance reading).
Various compounds were assayed for estrogenic activity by the alkaline phosphatase method and corresponding ED50 values (95% C.I.) were calculated. The four listed in the following were used as reference standards:
A description of such methods is provided by Holinka, C. F., Hata, H., Kuramoto, H. and Gurpide, E. (1986) Effects of steroid hormones and antisteroids on alkaline phosphatase activity in human endometrial cancer cells (Ishikawa Line). Cancer Research, 46:2771-2774, and by Littlefield, B. A., Gurpide, E., Markiewicz, L., McKinley, B. and by Hochberg, R. B. (1990) A simple and sensitive microtiter plate estrogen bioassay based on stimulation alkaline phosphatase in Ishikawa cells; Estrogen action of D5 adrenal steroids. Endocrinology, 6:2757-2762.

[5] = system: ovariectomized rat; details: background, cited from earlier work
[6] = system: bone; details: background; cited from earlier work
[7] = system: uterus; details: background; cited from earlier work

| Compound | uterine wet weight, 100 μG plus 1 μG 17β-Estradiol ([1]; 100 μG compound + 1 μG 17β-estradiol, estradiol alone: Example 11 group 90.8, Examples 14/15 group 95.5 mg) | Estrogen Receptor Affinity (RBA) [2] | % Activation with 1 nM 17β-estradiol (luciferase) ([3]; 1 uM compound + 1 nM 17β-estradiol, 24 h (antagonism)) | activation at 1 µM ([3]; CHO, 24 h) | % Activation (Compound ± 1 nM 17β-estradiol) (alkaline phosphatase) [4] | % Activation (alkaline phosphatase) [4] | ability to spare bone (in words) [5] | stimulation of uterine growth (in words) ([5]; compared with Tamoxifen) | uterine wet weight, 10 μG ([1]; 10 μG compound, controls: tamoxifen/raloxifene 42.7, Example 7 20.2, Example 12 31.4, Example 11 24.5, Examples 14/15 29.1 mg) | uterine wet weight, 100 μG ([1]; 100 μG compound, controls: tamoxifen/raloxifene 42.7, Example 7 20.2, Example 12 31.4, Example 11 24.5, Examples 14/15 29.1 mg) | effect on the bone in humans (in words) [6] | effect in the uterus (in words) [7] |
| --- | --- | --- | --- | --- | --- | --- | --- | --- | --- | --- | --- | --- |
| CCCCN(CCCC)C(=O)/C=C/c1ccc(Cn2c(-c3ccc(O)cc3)c(C)c3cc(O)ccc32)cc1 [Example 11, (E)-N,N-Dibutyl-3-{4-[5-hydroxy-2-(4-hydroxy-phenyl)-3-methyl-indol-1-ylmethyl]-phenyl}-acrylamide] | 81.0 mg | 80 | 12% | 8% | 11% | 6% | – | – | – | – | – | – |
| O=C(c1ccc(OCCN2CCCCC2)cc1)c1c(-c2ccc(O)cc2)sc2cc(O)ccc12 [raloxifene] | – | – | – | – | – | 5% | maintaining the ability to spare bone | stimulate uterine growth in the ovariectomized rat to a lesser extent than Tamoxifen | – | – | – | – |
| CC/C(=C(\c1ccccc1)c1ccc(OCCN(C)C)cc1)c1ccccc1 [tamoxifen] | – | – | – | – | 45% | 0% | – | – | 69.6 mg | 71.4 mg | estrogen agonist like effect on the bone | partial agonist in the uterus |
